Our source for the IC50 values is patent US20250221996A1, “HETEROCYCLIC COMPOUNDS, COMPOSITIONS THEREOF, AND METHODS OF TREATMENT THEREWITH” (BeiGene, Ltd., priority 2022, published 2025).

Structures are written as SMILES.

This assay relates to pERK1/2(THR202/TYR204) level in AsPC-1 cells. Briefly: pERK assay (HTRF) in AsPC-1 cell line. The class given is cell-based. The note with it: Homo sapiens, ASPC1, 2 h, 2 h compound treatment. The method, then: AsPC-1 cell line was used in this study. Cells were maintained in RPMI-1640 supplemented with 10% fetal bovine serum (Thermo Fisher), 50 units/mL penicillin and streptomycin (Thermo Fisher) and kept at 37° C. in a humidified atmosphere of 5% CO2 in air. Cells were reinstated from frozen stocks that were laid down within 30 passages from the original cells purchased. 30000 cells per well were seeded into a 96-well plate and incubated overnight. Cells were treated with a 10-point dilution series. The final compound concentration is from 0 to 10 μM. After 2 h compound treatment, cells were lysed, and the pERK1/2(THR202/TYR204) level in the cell lysates was detected by HTRF kit (Cisbio). In brief, a total of 16 μL of cell lysate from each well of a 96-well plate was transferred to a 384-well white assay plate. Lysate from each well was incubated with 2 μL of Eu3+-cryptate (donor) labeled anti-phospho-ERK1/2 and 2 μL of D2 (acceptor) labeled anti-phospho-ERK1/2 antibodies (Cisbio) overnight in dark at room temperature. When donor and acceptor are in close proximity, excitation of the donor with laser triggers a Fluorescence Resonance Energy Transfer (FRET) towards the acceptor, which in turn fluoresces at 655 nm wavelength. FRET signals were measured using a PHERAstar FSX reader (BMG Labtech). IC50 determination was performed by fitting the curve of percent inhibition versus the log of the inhibitor concentration using Dotmatics.
(TR-FRET usually uses a lanthanide donor and a delayed reading to cut background.)
For `COC1(COc2nc(N3CC4CCC(C3)N4)c3cc(C(F)(F)F)c(-c4ccc(F)c5sc(N)c(C#N)c45)c(F)c3n2)COC1` [Example 28, 4-(4-(3,8-diazabicyclo[3.2.1]octan-3-yl)-8-fluoro-2-((3-methoxyoxetan-3-yl)methoxy)-6-(trifluoromethyl)quinazolin-7-yl)-2-amino-7-fluorobenzo[b]thiophene-3-carbonitrile], half-maximal inhibition (IC50) was put at 78 nM.

`CC12CC(COc3nc(N4CC5CCC(C4)N5)c4cc(C(F)(F)F)c(-c5cc(O)cc6ccccc56)c(F)c4n3)(CO1)C2` [Example 29, 4-(4-(3,8-diazabicyclo[3.2.1]octan-3-yl)-8-fluoro-2-((1-methyl-2-oxabicyclo[2.1.1]hexan-4-yl)methoxy)-6-(trifluoromethyl)quinazolin-7-yl)naphthalen-2-ol] registered an IC50 of more than 10000 nM.

In turn, `N#Cc1c(N)sc2c(F)ccc(-c3c(C(F)(F)F)cc4c(N5CC6CCC(C5)N6)nc(OCC56COC(C#N)(C5)C6)nc4c3F)c12` [Example 30, 4-(((7-(2-amino-3-cyano-7-fluorobenzo[b]thiophen-4-yl)-4-(3,8-diazabicyclo[3.2.1]octan-3-yl)-8-fluoro-6-(trifluoromethyl)quinazolin-2-yl)oxy)methyl)-2-oxabicyclo[2.1.1]hexane-1-carbonitrile] yielded an IC50 of 71 nM.

With `CC1(COc2nc(N3CC4CCC(C3)N4)c3cc(C(F)(F)F)c(-c4ccc(F)c5sc(N)c(C#N)c45)c(F)c3n2)CN(C(=O)C2CC2)C1` [Example 31, 4-(4-(3,8-diazabicyclo[3.2.1]octan-3-yl)-2-((1-(cyclopropanecarbonyl)-3-methylazetidin-3-yl)methoxy)-8-fluoro-6-(trifluoromethyl)quinazolin-7-yl)-2-amino-7-fluorobenzo[b]thiophene-3-carbonitrile], the half-maximal inhibitory concentration (IC50) turned out to be 299 nM.

For the compound `CCC1(COc2nc(N3CC4CCC(C3)N4)c3cc(C(F)(F)F)c(-c4ccc(F)c5sc(N)c(C#N)c45)c(F)c3n2)COC1` [Example 32, 4-(4-(3,8-diazabicyclo[3.2.1]octan-3-yl)-2-((3-ethyloxetan-3-yl)methoxy)-8-fluoro-6-(trifluoromethyl)quinazolin-7-yl)-2-amino-7-fluorobenzo[b]thiophen-3-carbonitrile], the IC50 was found to be 110 nM.

For `N#Cc1c(N)sc2c(F)ccc(-c3c(C(F)(F)F)cc4c(N5CC6CCC(C5)N6)nc(OCC5CC6(COC6)C5)nc4c3F)c12` [Example 33, 4-(2-((2-oxaspiro[3.3]heptan-6-yl)methoxy)-4-(3,8-diazabicyclo [3.2.1]octan-3-yl)-8-fluoro-6-(trifluoromethyl)quinazolin-7-yl)-2-amino-7-fluoro benzo[b]thiophene-3-carbonitrile], the IC50 is 163 nM.

`CC(F)(F)C1(COc2nc(N3CC4CCC(C3)N4)c3cc(C(F)(F)F)c(-c4ccc(F)c5sc(N)c(C#N)c45)c(F)c3n2)COC1` [Example 34]: the IC50 is 81 nM.

`N#CCC1(COc2nc(N3CC4CCC(C3)N4)c3cc(C(F)(F)F)c(-c4ccc(F)c5sc(N)c(C#N)c45)c(F)c3n2)CCOCC1` [Example 35, 4-(4-(3,8-diazabicyclo[3.2.1]octan-3-yl)-2-((4-(cyanomethyl)tetra hydro-2H-pyran-4-yl)methoxy)-8-fluoro-6-(trifluoromethyl)quinazolin-7-yl)-2-amino-7-fluorobenzo[b]thiophene-3-carbonitrile] came in with a half-inhibitory concentration (IC50) of 275 nM.

The compound `CC(=O)N1CC(F)(COc2nc(N3CC4CCC(C3)N4)c3cc(C(F)(F)F)c(-c4ccc(F)c5sc(N)c(C#N)c45)c(F)c3n2)C1` [Example 36, 4-(2-((1-acetyl-3-fluoroazetidin-3-yl)methoxy)-4-(−3,8-diazabicyclo[3.2.1]octan-3-yl)-8-fluoro-6-(trifluoromethyl)quinazolin-7-yl)-2-amino-7-fluorobenzo[b]thiophene-3-carbonitrile] yielded an IC50 of 250 nM.

Regarding `N#CCC1(COc2nc(N3CC4CCC(C3)N4)c3cc(C(F)(F)F)c(-c4ccc(F)c5sc(N)c(C#N)c45)c(F)c3n2)CCOC1` (centres unmarked) [Example 37, 4-(4-(3,8-diazabicyclo[3.2.1]octan-3-yl)-2-((3-(cyanomethyl)tetra hydrofuran-3-yl)methoxy)-8-fluoro-6-(trifluoromethyl)quinazolin-7-yl)-2-amino-7-fluorobenzo[h]thiophene-3-carbonitrile], it took 119 nM to reach half-maximal inhibition (IC50).

`CC1(COc2nc(N3CC4CCC(C3)N4)c3cc(C(F)(F)F)c(-c4ccc(F)c5sc(N)c(C#N)c45)c(F)c3n2)CN(S(C)(=O)=O)C1` [Example 38, 4-(4-(3,8-diazabicyclo[3.2.1]octan-3-yl)-8-fluoro-2-((3-methyl-1-(methylsulfonyl)azetidin-3-yl)methoxy)-6-(trifluoromethyl)quinazolin-7-yl)-2-amino-7-fluorobenzo[b]thiophene-3-carbonitrile] registered a half-maximal inhibitory concentration (IC50) of 180 nM.

Take `COC1(COc2nc(N3CC4CCC(C3)N4)c3cc(C(F)(F)F)c(-c4ccc(F)c5sc(N)c(C#N)c45)c(F)c3n2)CN(C(C)=O)C1` [Example 39, 4-(2-((1-acetyl-3-methoxyazetidin-3-yl)methoxy)-4-(3,8-diazabicyclo [3.2.1]octan-3-yl)-8-fluoro-6-(trifluoromethyl)quinazolin-7-yl)-2-amino-7-fluorobenzo[b]thiophene-3-carbonitrile]: the IC50 amounted to 495 nM.

In turn, `CC(=O)N1CC2(COc3nc(N4CC5CCC(C4)N5)c4cc(C(F)(F)F)c(-c5ccc(F)c6sc(N)c(C#N)c56)c(F)c4n3)CC1C2` [Example 40, 4-(2-((2-acetyl-2-azabicyclo[2.1.1]hexan-4-yl)methoxy)-4-(3,8-diazabicyclo[3.2.1]octan-3-yl)-8-fluoro-6-(trifluoromethyl)quinazolin-7-yl)-2-amino-7-fluorobenzo[b]thiophene-3-carbonitrile] returned an IC50 of 236 nM.

`COCCNC1C[C@H]2CC[C@@H]1N2c1nc(OCC23COC(C2)C3)nc2c(F)c(-c3ccc(F)c4sc(N)c(C#N)c34)c(C(F)(F)F)cc12` (stereo partly drawn) [Example 41, 4-(2-((2-oxabicyclo[2.1.1]hexan-4-yl)methoxy)-8-fluoro-4-((1S,4R)-2-((2-methoxyethyl)amino)-7-azabicyclo[2.2.1]heptan-7-yl)-6-(trifluoromethyl)quinazolin-7-yl)-2-amino-7-fluorobenzo[b]thiophene-3-carbonitrile]: inhibition was half-maximal at 860 nM (IC50).

On to `CC12CC(COc3nc(N4CC5CCC(C4)N5)c4ccc(-c5cc(O)cc6ccccc56)c(F)c4n3)(CO1)C2` [Example 42, 4-(4-(3,8-diazabicyclo[3.2.1]octan-3-yl)-8-fluoro-2-((1-methyl-2-oxabicyclo[2.1.1]hexan-4-yl)methoxy)quinazolin-7-yl)naphthalen-2-ol], for which the concentration for half-maximal inhibition (IC50) is 4340 nM.

Regarding `N#Cc1c(N)sc2c(F)ccc(-c3c(C(F)(F)F)cc4c(N5CC6CCC(C5)N6)nc(OCC5(C(F)F)CCOCC5)nc4c3F)c12` [Example 43, 4-(4-(3,8-diazabicyclo[3.2.1]octan-3-yl)-2-((4-(difluoromethyl)tetrahydro-2H-pyran-4-yl)methoxy)-8-fluoro-6-(trifluoromethyl)quinazolin-7-yl)-2-amino-7-fluorobenzo[h]thiophene-3-carbonitrile], the IC50 was found to be 479 nM.

Consider `N#Cc1c(N)sc2c(F)ccc(-c3c(C(F)(F)F)cc4c(N5CC6CCC(C5)N6)nc(OCC5(F)COC5)nc4c3F)c12` [Example 44, 4-(4-(3,8-diazabicyclo[3.2.1]octan-3-yl)-8-fluoro-2-((3-fluorooxetan-3-yl)methoxy)-6-(trifluoromethyl)quinazolin-7-yl)-2-amino-7-fluorobenzo [b]thiophene-3-carbonitrile], for which the concentration for half-maximal inhibition (IC50) came to 211 nM.

For the compound `COC1(COc2nc(N3CC4CCC(C3)N4)c3cc(C(F)(F)F)c(-c4ccc(F)c5sc(N)c(C#N)c45)c(F)c3n2)CC1` [Example 45, 4-(4-(3,8-diazabicyclo[3.2.1]octan-3-yl)-8-fluoro-2-((1-methoxycyclopropyl)methoxy)-6-(trifluoromethyl)quinazolin-7-yl)-2-amino-7-fluorobenzo[b] thiophene-3-carbonitrile], the half-maximal inhibitory concentration (IC50) was found to be 115 nM.

Turning to `CC1(COc2nc(N3CC4CCC(C3)N4)c3cc(C(F)(F)F)c(-c4ccc(F)c5sc(N)c(C#N)c45)c(F)c3n2)CN(c2ncco2)C1` [Example 46, 4-(4-(3,8-diazabicyclo[3.2.1]octan-3-yl)-8-fluoro-2-((3-methyl-1-(oxazol-2-yl)azetidin-3-yl)methoxy)-6-(trifluoromethyl)quinazolin-7-yl)-2-amino-7-fluorobenzo[b]thiophene-3-carbonitrile], half-maximal inhibition (IC50) was put at 222 nM.

Consider `N#Cc1c(N)sc2c(F)ccc(-c3c(C(F)(F)F)cc4c(N5CC6CCC(C5)N6)nc(OCC56COC(COC7CC7)(C5)C6)nc4c3F)c12` [Example 47, 4-(4-(3,8-diazabicyclo[3.2.1]octan-3-yl)-2-((1-(cyclopropoxymethyl)-2-oxabicyclo[2.1.1]hexan-4-yl)methoxy)-8-fluoro-6-(trifluoromethyl)quinazolin-7-yl)-2-amino-7-fluorobenzo[b]thiophene-3-carbonitrile], for which the 50% inhibitory concentration (IC50) was 154 nM.

What is called IC50 is the concentration that gives 50% inhibition. Read a low IC50 as higher potency.
